A short description of data set [1]: Solubility in methanol (structure identification). Format: physicochemical.
The nature of data set [2]: DPPH radical scavenging assay. Format: biochemical. The settings on record: 0.2 mM DPPH in ethanol, 30 minutes in dark at room temperature, absorbance at 517 nm; read-out: IC50 value against DPPH radicals. As to the method: DPPH is a stable free radical. When a free radical scavenger is present, light absorption of DPPH will be reduced when the single electron is scavenged, which allows to evaluate free radical scavenging ability of the substance and accordingly determine antioxidant ability thereof. The DPPH radical scavenging ability of the dihydrofuran chalcone was measured through the DPPH radical scavenging assay, so as to evaluate the antioxidant ability of the compound. The assay comprised the following steps: 1,1-Diphenyl-2-picrylhydrazyl (DPPH) was dissolved in absolute ethanol to obtain a solution with a concentration of 0.2 mM. The dihydrofuran chalcone was dissolved in absolute ethanol. 80 μL of the ethanol solution of dihydrofuran chalcone and 160 μL of the 0.2 mM DPPH ethanol solution were mixed and the mixture was placed in dark at room temperature for 30 minutes. Then, light absorbance at 517 nm was measured using a microplate reader (SpectraMax 190, Molecular Devices, USA), and Vc was employed as a positive control.

We go through 2 compounds from patent publication US11161829B1, “Dihydrofuran chalcone compound and preparation method thereof” (SOUTH CHINA BOTANICAL GARDEN, CHINESE ACADEMY OF SCIENCES, priority 2018, dated 2021).

SMILES strings stand for the structures. pIC50: −log10 of the molar value.

Take `CC(C)(O)C1Cc2c(O)ccc(C(=O)/C=C/c3ccc(O)cc3O)c2O1` (centres unmarked) [compound 1, dihydrofuran chalcone]: the solubility in methanol entry in data set [1] is recorded as “easily soluble”.

As usually defined, the pIC50 is the IC50 on a negative log10 scale, so that one unit is a factor of ten. With `O=C1O[C@H]([C@@H](O)CO)C(O)=C1O` [Vc, vitamin C], the pIC50 in data set [2] is 4.00.
